Measurements from PMC8347709 (International Journal of Molecular Sciences, 2021).
Where two headings read alike, the source gives them in different places.

Assays:
[1] = target: CB2; set-up: method as in PMID 29921889, PMID 33379862; conditions: Figure 1; cited from earlier work
[2] = target: T1, hCB2R (Homo sapiens, UniProt P34972); experiment: competitive radioligand displacement with [3H]WIN55212-2 on hCB2-CHO membrane preparations; format: binding; set-up: host or cells: CHO cells, stably transfected; conditions: hCB2-CHO membranes, read-out: Ki(hCB2R)
T1 sequence (P34972 whole entry): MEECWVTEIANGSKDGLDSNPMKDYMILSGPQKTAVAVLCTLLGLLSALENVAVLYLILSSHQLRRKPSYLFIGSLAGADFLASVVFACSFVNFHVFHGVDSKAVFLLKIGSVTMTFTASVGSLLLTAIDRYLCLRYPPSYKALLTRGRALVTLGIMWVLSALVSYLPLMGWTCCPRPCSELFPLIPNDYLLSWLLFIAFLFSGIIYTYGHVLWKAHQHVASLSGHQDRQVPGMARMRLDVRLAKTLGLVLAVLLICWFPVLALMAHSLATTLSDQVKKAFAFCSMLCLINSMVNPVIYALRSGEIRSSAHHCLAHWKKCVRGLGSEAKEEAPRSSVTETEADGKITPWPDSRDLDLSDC
Description: In brief, membrane preparations obtained from CHO cell lines stably transfected with either human CB1 (hCB1-CHO; obtained from Euroscreen, Gosselies, Belgium) or human CB2 (hCB2-CHO; obtained from Paul L. Prather, Department of Pharmacology and Toxicology, College of Medicine, University of Arkansas for Medical Sciences, Fayetteville, AR, USA) were used along with [^3H]SR141716A (1554 GBq/mmol; PerkinElmer Life and Analytical Sciences, Rodgau, Germany) and [^3H]WIN55212-2 (6438 GBq/mmol; PerkinElmer Life and Analytical Sciences, Rodgau, Germany), resp., as target-specific radioligands. The incubations were performed in 50 mM TRIS-HCl, pH 7.4, supplemented with 0.1% bovine serum albumin (BSA), 5 mM MgCl2, and 1 mM EDTA for 90 min at room temperature. Various concentrations of test compounds were administered, and the non-specific binding was determined in the presence of 10 μM 56. The values of bound activity were used to determine affinity (Ki) values using non-linear regression analysis (GraphPad Prism 2.01, v9, San Diego, CA, USA) and based on the KD values of [^3H]56 determined by saturation experiments [54].
Human CB2 receptors were expressed in CHO cells, and affinities were determined by competitive radioligand displacement experiments using [^3H]WIN552122. […]

[3] = target: T2, CB2R in rat spleen tissue (Rattus norvegicus, UniProt Q9QZN9); set-up: method as in PMID 27713686; conditions: previously reported; cited from earlier work
T2 construct: from tissue; host or cells: rat spleen cryosections (female SPRD rat)
T2 sequence (Q9QZN9 1-360): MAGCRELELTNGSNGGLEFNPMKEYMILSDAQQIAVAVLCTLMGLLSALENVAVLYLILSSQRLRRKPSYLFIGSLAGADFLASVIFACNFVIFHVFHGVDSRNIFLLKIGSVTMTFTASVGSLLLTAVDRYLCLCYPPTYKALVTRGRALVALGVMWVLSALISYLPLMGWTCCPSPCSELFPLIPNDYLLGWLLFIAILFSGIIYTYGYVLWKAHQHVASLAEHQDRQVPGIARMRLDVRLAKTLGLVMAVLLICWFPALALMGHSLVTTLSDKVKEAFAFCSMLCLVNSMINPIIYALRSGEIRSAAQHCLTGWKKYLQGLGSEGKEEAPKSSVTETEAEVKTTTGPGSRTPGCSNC

[4] = set-up: method as in PMID 30342565, PMID 2173751; conditions: cited from earlier work
[5] = target: T1, hCB2R; conditions: cited from earlier work

Molecule | Ki [1] | further results
COc1cccc2c(=O)c(C(=O)NC34CC5CC(CC(C5)C3)C4)cn(CCOCCC[18F])c12 [[^18F]RS-126] | 1.2 nM | –
CCOCCn1cc(C(=O)NC23CC4CC(CC(C4)C2)C3)c(=O)c2cccc(O[11CH3])c21 [[^11C]RS-016] | 0.7 nM | –
COc1cccc2c(=O)c(C(=O)NC34CC5CC(CC(C5)C3)C4)cn(CCCOCCC[18F])c12 [[^18F]AH-043] | 6.3 nM | –
CCOCCn1cc(C(=O)NC23CC4CC(CC(C4)C2)C3)c(=O)c2cccc(OCC[18F])c21 [[^18F]RS-122] | 72 nM | –
Cc1s/c(=N\C(=O)C2C(C)(C)C2(C)C)n(CCCC[18F])c1C [[^18F]JHU94620] | 0.4 nM | –
CCCCOc1c(OCC[18F])ccc2cc(C(=O)NC3CCCCC3)c(=O)[nH]c12 [[^18F]1] | 36 nM | –
Cc1s/c(=N\C(=O)C2C(C)(C)C2(C)C)n(CCOCC[18F])c1C [[^18F]FC024] | 0.1 nM | –
CCCCOc1c(O[11CH3])ccc2cc(C(=O)NC3CCCCC3)c(=O)[nH]c12 [[^11C]NE40] | 9.6 nM | –
CCOC(=O)C(CC)(CC)NC(=O)c1ccc(N2CC(O[11CH3])C2)c(OCC2CC2)n1 [[^11C]RSR-056] | 2.5 nM | –
COc1cccc2c(=O)c(C(=O)NC34CC5CC(CC(C5)C3)C4)cn(CCOCCCC[18F])c12 [[^18F]AH-040] | 0.9 nM | –
CCC(CC)(NC(=O)c1ccc(N2CC(OC)C2)c(OCC2CC2)n1)C(=O)OCCC[18F] [[^18F]2] | 6 nM | –
C[C@H]1CC[C@@H](NC(=O)c2cc3cccnc3n(CCCCF)c2=O)CC1 [cis-5] | – | Ki [2]: 6 nM
Fc1ccc(-c2noc(CCCNc3cnc4ccc(OCC[18F])cc4c3)n2)c(Cl)c1 [[^18F]MA3] | 0.8 nM | visualisation of CB2 receptors in rodent spleen tissue [3]: inability to visualise CB2 receptors in rodent spleen tissue
[2H]C([2H])([18F])C([2H])([2H])C([2H])([2H])OC(=O)C(CC)(CC)NC(=O)c1ccc(N2CC(OC)C2)c(OCC2CC2)n1 [[^18F]RoSMA-18-d6] | 6 nM | –
CCCCCn1cc(C(=O)NC23CC4CC(CC(C4)C2)C3)c(=O)c2cccc(O[11CH3])c21 [[^11C]KD2] | 1.7 nM | –
Cc1s/c(=N\C(=O)C2C(C)(C)C2(C)C)n(CCO[11CH3])c1C [[^11C]A-836339] | 0.7 nM | –
(−)-Δ9-trans-tetrahydrocannabinol [THC] | – | LogD7.4 [4]: > 7
[11CH3]Oc1ccc2ncc(NCCCc3nc(-c4ccc(F)cc4Cl)no3)cc2c1 [[^11C]MA2] | 87 nM | –
CC1CCC(NC(=O)c2cc3cccnc3n(CCCCF)c2=O)CC1 (stereo not shown) [compound 5, 1-(4-Fluorbutyl)-N-(4-methyl)-2-oxo-1,2-dihydro-1,8-naphthyridine-3-carboxamide] | – | Ki ([5]; HEK-293 membranes, [3H]CP-55,940): 1.4 nM; Ki ([5]; diastereomeric mixture, published value): 1.3 nM
C[C@H]1CC[C@H](NC(=O)c2cc3cccnc3n(CCCCF)c2=O)CC1 [trans-5] | – | Ki [2]: 52 nM
